Reference: the supplement of paper PMC10307832

What was measured:
Assay in all cases: relative viability (nuclei count vs DMSO), 5 days (fraction); higher = more cells survive
Afatinib + Decitabine = compound: CN(C)C/C=C/C(=O)Nc1cc2c(Nc3ccc(F)c(Cl)c3)ncnc2cc1O[C@H]1CCOC1 [Afatinib] + Nc1ncn([C@H]2C[C@H](O)[C@@H](CO)O2)c(=O)n1 [Decitabine] (partner 2 µM)
In short: (§1)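 Nuclei were stained with Hoechst during a one-step fixation (final 0.05% Triton X-100, 1% formaldehyde, 1 ug/ml Hoechst) carried out 5 days after dosing, then counted on 4× images. The cells, lung cancer lines in 1536-well plates, had been dosed by pin tool the day after seeding with one drug alone or a fixed anchor-drug dose plus five library-drug doses (not always all listed) in √10 steps. Relative viability is the nuclei count in treated wells divided by that in vehicle wells, and each value is the median of duplicate plates.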

Afatinib + Bortezomib = compound: CN(C)C/C=C/C(=O)Nc1cc2c(Nc3ccc(F)c(Cl)c3)ncnc2cc1O[C@H]1CCOC1 [Afatinib] + CC(C)C[C@H](NC(=O)[C@H](Cc1ccccc1)NC(=O)c1cnccn1)B(O)O [Bortezomib] (partner 0.002 µM)
In short: as §1

Afatinib + Tozasertib = compound: CN(C)C/C=C/C(=O)Nc1cc2c(Nc3ccc(F)c(Cl)c3)ncnc2cc1O[C@H]1CCOC1 [Afatinib] + Cc1cc(Nc2cc(N3CCN(C)CC3)nc(Sc3ccc(NC(=O)C4CC4)cc3)n2)n[nH]1 [Tozasertib] (partner 0.1 µM)
In short: as §1

Afatinib + AZD7762 = compound: CN(C)C/C=C/C(=O)Nc1cc2c(Nc3ccc(F)c(Cl)c3)ncnc2cc1O[C@H]1CCOC1 [Afatinib] + NC(=O)Nc1cc(-c2cccc(F)c2)sc1C(=O)N[C@H]1CCCNC1 [AZD7762] (partner 0.2 µM)
In short: as §1

| Cell Line | relative viability (Afatinib + Decitabine; first compound 0.005 µM) | relative viability (Afatinib + Decitabine; first compound 0.01581 µM) | relative viability (Afatinib + Decitabine; first compound 0.05 µM) | relative viability (Afatinib + Decitabine; first compound 0.1581 µM) | relative viability (Afatinib + Decitabine; first compound 0.5 µM) | relative viability (Afatinib + Bortezomib; first compound 0.005 µM) | relative viability (Afatinib + Bortezomib; first compound 0.01581 µM) | relative viability (Afatinib + Bortezomib; first compound 0.05 µM) | relative viability (Afatinib + Bortezomib; first compound 0.1581 µM) | relative viability (Afatinib + Bortezomib; first compound 0.5 µM) | relative viability (Afatinib + Tozasertib; first compound 0.005 µM) | relative viability (Afatinib + Tozasertib; first compound 0.01581 µM) | relative viability (Afatinib + Tozasertib; first compound 0.05 µM) | relative viability (Afatinib + Tozasertib; first compound 0.1581 µM) | relative viability (Afatinib + Tozasertib; first compound 0.5 µM) | relative viability (Afatinib + AZD7762; first compound 0.005 µM) | relative viability (Afatinib + AZD7762; first compound 0.01581 µM) | relative viability (Afatinib + AZD7762; first compound 0.05 µM) | relative viability (Afatinib + AZD7762; first compound 0.1581 µM) | relative viability (Afatinib + AZD7762; first compound 0.5 µM) |
| --- | --- | --- | --- | --- | --- | --- | --- | --- | --- | --- | --- | --- | --- | --- | --- | --- | --- | --- | --- | --- |
| LCLC-97TM1 | 0.262 | 0.17 | 0.234 | 0.273 | 0.255 | 0.733 | 0.646 | 0.648 | 0.463 | 0.619 | 0.248 | 0.247 | 0.159 | 0.268 | 0.179 | 0.164 | 0.259 | 0.186 | 0.42 | 0.18 |
| HARA | 0.548 |  | 0.413 | 0.325 | 0.349 | 1.02 | 0.763 | 0.683 | 0.836 | 0.754 | 0.0895 | 0.0918 | 0.0646 | 0.0722 | 0.062 |  |  | 0.225 | 0.217 | 0.287 |
| HCC-78 | 0.726 | 0.607 | 0.616 | 0.635 | 0.651 | 0.528 | 0.514 | 0.566 | 0.362 | 0.434 | 0.474 | 0.405 | 0.403 | 0.312 | 0.47 | 0.693 | 0.542 | 0.509 | 0.478 | 0.449 |
| NCI-H1666 | 0.702 | 0.67 | 0.642 | 0.562 | 0.657 | 0.712 | 0.758 | 0.567 |  | 0.8 | 0.673 | 0.621 | 0.596 | 0.519 | 0.551 | 0.824 | 0.776 | 0.824 | 0.608 | 0.76 |
| NCI-H2347 | 0.602 | 0.654 | 0.626 | 0.592 | 0.592 | 1.06 | 0.919 | 0.81 | 0.865 | 0.728 | 0.509 | 0.593 | 0.596 | 0.484 | 0.603 | 0.568 | 0.738 | 0.589 | 0.725 | 0.541 |
| NCI-H838 | 0.496 | 0.445 | 0.481 | 0.451 | 0.461 | 0.869 | 0.958 | 1.01 | 0.667 | 1.05 | 0.29 | 0.264 | 0.282 | 0.222 | 0.276 | 0.801 | 0.946 | 0.915 | 0.968 | 0.953 |
| NCI-H2023 | 0.234 | 0.197 | 0.211 | 0.2 | 0.234 | 0.954 | 0.884 | 0.984 | 0.899 | 1.14 | 0.422 | 0.377 | 0.366 | 0.169 | 0.248 |  |  |  |  |  |
| 201T | 0.857 | 0.867 | 0.844 | 0.78 | 0.822 | 1.09 | 0.921 | 1.02 | 1.07 | 1.13 | 1.01 | 0.915 | 0.948 | 0.806 | 0.827 | 0.483 | 0.626 | 0.599 | 0.667 | 0.62 |
| NCI-H1915 | 0.269 | 0.268 | 0.272 | 0.268 | 0.269 | 0.994 | 1 | 0.938 | 1 | 0.952 | 0.522 | 0.46 | 0.414 | 0.427 | 0.419 | 0.67 | 0.708 | 0.685 | 0.723 | 0.682 |
| NCI-H2009 | 0.398 | 0.383 | 0.357 | 0.366 | 0.358 | 1.09 | 1.01 | 0.991 | 1 | 1.03 | 0.856 | 0.785 | 0.789 | 0.713 | 0.732 |  |  |  |  |  |
| BEN | 0.727 | 0.707 | 0.666 | 0.736 | 0.919 | 0.918 | 0.651 | 0.882 | 0.957 | 0.905 | 0.461 | 0.512 | 0.57 | 0.475 | 0.494 | 0.618 | 0.704 | 0.648 | 0.642 | 0.636 |
| PC-14 | 0.14 | 0.17 | 0.137 | 0.171 | 0.218 | 0.303 | 0.256 | 0.268 | 0.222 | 0.249 | 0.228 | 0.257 | 0.254 | 0.232 | 0.247 | 0.235 | 0.157 | 0.139 | 0.166 | 0.14 |
| SK-MES-1 | 0.27 | 0.322 | 0.309 | 0.312 | 0.316 |  |  |  |  |  | 0.928 | 0.897 | 0.723 | 0.613 | 0.532 |  |  |  |  |  |
| NCI-H727 | 0.826 | 0.534 | 0.831 | 0.761 | 0.829 | 0.85 | 0.732 | 0.825 | 0.863 | 0.804 | 0.597 | 0.614 | 0.543 | 0.514 | 0.449 | 0.574 | 0.467 | 0.527 | 0.515 | 0.543 |
| NCI-H1355 | 0.377 | 0.332 | 0.341 | 0.356 | 0.332 | 1.26 | 1.16 | 1.29 | 1.03 | 1.02 | 0.577 | 0.517 | 0.522 | 0.501 | 0.464 | 0.71 | 0.765 | 0.779 | 0.645 | 0.748 |
| NCI-H1975 | 0.395 | 0.283 | 0.391 | 0.264 | 0.373 | 0.358 | 0.345 | 0.309 | 0.171 | 0.189 | 0.7 | 0.702 | 0.641 | 0.268 | 0.218 | 0.867 | 0.676 | 0.538 | 0.43 | 0.312 |
| LK-2 | 0.41 | 0.258 | 0.288 | 0.328 | 0.301 |  |  |  |  |  | 0.161 | 0.173 | 0.2 | 0.182 | 0.166 | 0.465 | 0.328 | 0.371 | 0.329 | 0.521 |
| NCI-H661 | 0.502 | 0.428 | 0.44 | 0.391 | 0.401 | 0.877 | 0.751 | 0.662 | 0.444 | 0.415 | 0.34 | 0.367 | 0.367 | 0.361 | 0.377 |  |  |  |  |  |
